Experimental findings from patent publication US9238034B2, “FN14 antagonists and therapeutic uses thereof” (THE TRANSLATIONAL GENOMICS RESEARCH INSTITUTE, priority 2013, dated 2016) are described below.

The subject of experiment [1] is TWEAK-Fn14 signaling pathway. Briefly: TWEAK induced Fn14-NF-κB Luc assay, optimized 384-well HTS format. Type of experiment: cell-based, human. The following applies: 1000 cells/well, 40 ng/mL TWEAK 8 hr, 1 hr pre-incubation. From the text:
Human embryonic kidney cells (HEK293) express low levels of the Fn14 receptor. We developed a cell-based assay for the Fn14-TWEAK pathway signaling events using HEK293 cells that stably co-expresses high levels of full length Fn14 receptor and a firefly luciferase reporter driven by NF-KB-response elements (Fn14-NF-KB-Luc).
We optimized HEK293 Fn14-NF-KB Luc cell line for HTS by testing TWEAK-stimulated Luc-reporting as a function of growth medium, TWEAK concentration, induction time, assay duration, cell density, and DMSO concentration. For example, we seeded HEK293 Fn14-NF-KB-Luc and control cells (HEK293 NFKB-Luc) into a 96-well plate at a density of 10,000 cells/well, in DMEM or Opti-MEM® (Reduced serum media, protein concentration 15 μg/mL) and incubated at 37 C for 24 or 48 h. We then induced them with various concentrations of TWEAK in buffer or buffer alone (PBS+1 mg/mL BSA) for 5 hr and then measured firefly luciferase levels by chemiluminescence (Bright-Glo™ Promega). […] These initial conditions formed the basis for transfer of the assay into a 384-well format and further optimization with respect to cell seeding density, induction time, and TWEAK concentration.
We achieved the same conclusion from both 96-well and 384-well format that signal-to-background and fold-inductions are increased with increasing TWEAK concentration, peaking between 40-80 ng/mL and decreased at 100 ng/mL (FIGS. 20A and 20B). […] These conditions were further refined with respect to cell density (500-2500 cells per well), induction time (4-8 hr), and two TWEAK concentrations over a series of experiments in 384-well formats.
In the majority of seeding density conditions and two different TWEAK concentrations, the assay performance improved with increasing TWEAK induction time. At 8 hours of TWEAK stimulation, the fold induction (S/B) and Z′ factor was approximately 8-fold and 0.8, respectively, and the average % CV was 6.8%. […]

Another experiment concerns the target T1, Fn14-TWEAK binding (Homo sapiens, UniProt Q9NP84).
T1 construct: the human Fc fragment-tagged Fn14 extracellular domain (R&D Systems) was captured; purchased R&D Systems (Fn14-Fc); Peprotech (recombinant TWEAK)
T1 sequence (Q9NP84 28-80 limits assumed): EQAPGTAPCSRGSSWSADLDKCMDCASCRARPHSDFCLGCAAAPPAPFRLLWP
Description: Double sandwich ELISA small molecule screening of TWEAK binding to captured Fn14-Fc. As for the experimental part: Double Sandwich ELISA. sTWEAK and sTWEAK variant proteins were synthesized as described above. The expression level of each IVTT synthesized sTWEAK protein was analyzed by western blot analysis and used in approximately equal amounts in the ELISA. To assay the binding of wild type sTWEAK and sTWEAK variants to Fn14, the human Fc fragment-tagged Fn14 extracellular domain (R&D Systems) was captured in an Immuno 96-microwell white plate by adding 100 μL of 0.025 μg/mL Fn14-Fc to wells coated with goat anti-human Fcγ fragment specific monoclonal antibody. After capture, the wells were washed 3× with Dulbecco's Phosphate Buffered Saline (DPBS) containing 0.05% Tween-20. Unbound sites were blocked by addition of 100 μL of blocking solution containing 0.05% Tween-20, 1% BSA, and 3% normal goat serum (NGS) in DPBS for 1 hr at room temperature. 0.01 μL of sTWEAK or sTWEAK variant made with the human IVTT kit or 2 μL of sTWEAK or sTWEAK variant made with the rabbit IVTT kit was diluted in 100 μL of sample diluent (DPBS+1% BSA+0.005% Tween-20) and then added to the wells for 2 hr followed by addition of 100 μL of 50 ng/mL biotinylated TWEAK detection antibody (R&D Systems) in sample diluent. Following incubation for additional 2 hr at room temperature, wells were washed 3× with DPBS containing 0.05% Tween-20 and bound biotinylated TWEAK antibody was detected by incubation with an HRP-conjugated streptavidin. The total luminescent signal was obtained using Femto ELISA kit (Pierce Biochemical) and compared to the standard curve signal obtained from the binding of 0-4000 pg/mL recombinant TWEAK (Peprotech inc) to Fn14-Fc. Using 5-parameter logistic curve fitting for standard curve analysis (Sigmaplot 11.0, SyStat Software Inc.), binding of sTWEAK or TWEAK variant to Fn14-Fc was determined. The data represents that observed for at least four replicate assays.
The small molecule screening was performed using the ELISA assay described above with minor modifications. Briefly, after capturing Fn14-Fc in the microwell plate, 80 μl of drug solution in sample diluent was added to desired wells and incubated for 2 hrs at room temperature. Subsequently, 20 μL of 2500 pg/mL (5×) TWEAK was added to each well to achieve final TWEAK concentration of 500 pg/mL and incubated for additional 2 hr at room temperature. Bound TWEAK was detected as described in the protocol above. All small molecule inhibitors were screened at 25 μM final concentration (final DMSO concentration of 0.125%) in duplicate. Cyclohexamide, a non-specific small molecule, at 25 μM concentration was used as negative control. The anti-Fn14 antibody ITEM-4, added at 2.5 μg/mL, was used as a positive control for complete blockade of TWEAK binding. Reduction in TWEAK binding due to compound addition or controls was calculated by using standard curve (Separate standard curve was obtained for every screening plate).

The mark [2] stands for this setting: Table 3, first round of screening, 25 μM, average of duplicate, read-out: % Reduction in TWEAK Binding, Average.
Setting [3] is: Table 3, first round of screening, 25 μM, replicate 1, read-out: % Reduction in TWEAK Binding, Data 1.
Setting [4] is: Table 3, first round of screening, 25 μM, replicate 2, read-out: % Reduction in TWEAK Binding, Data 2.
[5] abbreviates: Table 4, second screening iteration, 25 μM, average of duplicate, read-out: % Reduction in TWEAK Binding, Average.
Where [6] appears, read: Table 4, second screening iteration, 25 μM, replicate 1, read-out: % Reduction in TWEAK Binding, Data 1.
Where [7] appears, read: Table 4, second screening iteration, 25 μM, replicate 2, read-out: % Reduction in TWEAK Binding, Data 2.
Where [8] appears, read: Table 5, 25 μM, average of duplicate, read-out: % Reduction in TWEAK Binding, Average.
[9] abbreviates: Table 5, 25 μM, replicate 1, read-out: % Reduction in TWEAK Binding, Data 1.
Where [10] appears, read: Table 5, 25 μM, replicate 2, read-out: % Reduction in TWEAK Binding, Data 2.
Setting [11] is: first round of screening, 25 μM, read-out: average inhibition in TWEAK-Fn14 binding.

Where two headings read alike, the source gives them in different places.

Turning to `C[C@@H]1C[C@H]2[C@@H]3CCC4=CC(=O)C=C[C@]4(C)[C@@]3(F)[C@@H](O)C[C@]2(C)[C@@]1(O)C(=O)CO` [Dexamethasone, dexamethasone], the “effect on TWEAK induced Fn14-NF-κB Luc signal” value in experiment [1] is recorded as “no effect”.
Regarding `O=C(NCc1ccccc1Cl)C(=O)NCc1n[nH]c(=O)c2ccccc12` [Compound F044-0076], the inhibition at 25 µM at Fn14-TWEAK binding (setting [2]) is 10.9%; at Fn14-TWEAK binding (setting [3]), 8.55%; at Fn14-TWEAK binding (setting [4]) it was 13.2%; at Fn14-TWEAK binding (setting [5]), 1.62%; on Fn14-TWEAK binding (setting [6]), -2.3%; at Fn14-TWEAK binding (setting [7]), 5.55%. The values for the inhibition at 25 µM on Fn14-TWEAK binding (setting [8]), at Fn14-TWEAK binding (setting [9]) and at Fn14-TWEAK binding (setting [10]) were 10.9%, 8.55% and 13.2%, respectively.
As to `Cc1cccc(NC(=O)CS(=O)(=O)c2ccccc2)c1` [Compound C200-5958], at Fn14-TWEAK binding (Table 4, second screening iteration, 25 μM, average of duplicate), the “% Reduction in TWEAK Binding, Average” value is −5.743%. Besides, the “% Reduction in TWEAK Binding, Data 2” value at Fn14-TWEAK binding (Table 4, second screening iteration, 25 μM, replicate 2) was −5.743%.
For the compound `O=C(O)C[C@@H]1NC(=O)c2ccccc2NC1=O` [Compound D715-2673], the inhibition at 25 µM at Fn14-TWEAK binding (setting [2]) amounted to 14.5%; at Fn14-TWEAK binding (setting [3]), 14.3%; at Fn14-TWEAK binding (setting [4]) it was 14.7%; at Fn14-TWEAK binding (setting [8]), 14.5%; on Fn14-TWEAK binding (setting [9]), 14.3%; at Fn14-TWEAK binding (setting [10]) it was 14.7%. Moreover, the inhibition at 25 µM at Fn14-TWEAK binding (setting [11]) is < 15%.
As to `CCC(=O)Nc1ccccc1-c1nnc(SCC(=O)Nc2cc(C)ccc2C)[nH]c1=O` [Compound F151-0458], the inhibition at 25 µM at Fn14-TWEAK binding (setting [2]) worked out at 11.1%; on Fn14-TWEAK binding (setting [3]), 10.7%; at Fn14-TWEAK binding (setting [4]) it was 11.5%; at Fn14-TWEAK binding (setting [8]) it was 11.1%; on Fn14-TWEAK binding (setting [9]), 10.7%; at Fn14-TWEAK binding (setting [10]) it was 11.5%.
`CCC(=O)Nc1ccccc1-c1nnc(SC(CC)C(=O)Nc2cccc(OC)c2)[nH]c1=O` (centres unmarked) [Compound F151-0392]: the inhibition at 25 µM on Fn14-TWEAK binding (setting [2]) was determined as 11.6%; at Fn14-TWEAK binding (setting [3]), 9.04%; on Fn14-TWEAK binding (setting [4]), 14.2%; on Fn14-TWEAK binding (setting [8]), 11.6%; at Fn14-TWEAK binding (setting [9]), 9.04%; at Fn14-TWEAK binding (setting [10]), 14.2%.
`Cc1cc(C)n(CC(=O)NCCc2c[nH]c3ccccc23)n1` [Compound D715-0890]: the inhibition at 25 µM at Fn14-TWEAK binding (setting [2]) came to 15.3%; at Fn14-TWEAK binding (setting [3]), 17.1%; at Fn14-TWEAK binding (setting [4]) it was 13.6%; on Fn14-TWEAK binding (setting [8]), 15.3%; at Fn14-TWEAK binding (setting [9]) it was 17.1%; on Fn14-TWEAK binding (setting [10]), 13.6%. Besides, at Fn14-TWEAK binding (setting [11]), the inhibition at 25 µM was > 15%.
In the case of `CCC(=O)Nc1ccccc1-c1nnc(SCC(=O)Nc2ccc(OC)cc2)[nH]c1=O` [Compound F151-0485], the inhibition at 25 µM was found to be 10.3% on Fn14-TWEAK binding (setting [2]); 14.7% on Fn14-TWEAK binding (setting [3]); 5.86% at Fn14-TWEAK binding (setting [4]); 10.3% on Fn14-TWEAK binding (setting [8]); 14.7% on Fn14-TWEAK binding (setting [9]); 5.86% on Fn14-TWEAK binding (setting [10]).
Consider `CCOCCCNC(=O)C(=O)NCc1n[nH]c(=O)c2ccccc12` [Compound F044-0058], for which the inhibition at 25 µM came out at 12% on Fn14-TWEAK binding (setting [2]); 9.99% at Fn14-TWEAK binding (setting [3]); 14.1% on Fn14-TWEAK binding (setting [4]); 12% at Fn14-TWEAK binding (setting [8]); 9.99% on Fn14-TWEAK binding (setting [9]); 14.1% at Fn14-TWEAK binding (setting [10]).
On to `O=C(CSc1nnc(-c2ccccc2)c(-c2ccccc2)n1)Nc1ccccc1` [Compound G003-0114], for which the inhibition at 25 µM at Fn14-TWEAK binding (setting [5]) was 13%; on Fn14-TWEAK binding (setting [6]) it was 14.7%; on Fn14-TWEAK binding (setting [7]), 11.3%; at Fn14-TWEAK binding (setting [8]) it was 13%; on Fn14-TWEAK binding (setting [9]), 14.7%; at Fn14-TWEAK binding (setting [10]) it was 11.3%.
For `C=CCSc1nnc(-c2ccccc2NC(=O)CC)c(O)n1` [Compound 6969-1085], the inhibition at 25 µM on Fn14-TWEAK binding (setting [5]) came out at 16.8%; at Fn14-TWEAK binding (setting [6]), 15.5%; at Fn14-TWEAK binding (setting [7]), 18%; on Fn14-TWEAK binding (setting [8]) it was 16.8%; at Fn14-TWEAK binding (setting [9]), 15.5%; at Fn14-TWEAK binding (setting [10]), 18%.
